Measured values: US12448369B2 (Edgewise Therapeutics, Inc., priority 2023, dated 2025)

Assays:
[1] = test system: Rabbit Psoas myofibrils (skeletal myosin ATPase); assay: Myofibril ATPase assay, rabbit psoas (skeletal) myofibrils; format: biochemical; conditions: rabbit psoas myofibrils
Procedure, shortened: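 Readout: A340 decline from NADH oxidation, PK/LDH-coupled to ADP release; kinetic reads over 75 min. Buffer: pCa (PIPES, CaCl2, EGTA), pH 7.0. Linear-regression slopes vs vehicle, 4PL fit; reported as concentration giving 75% (Y75) or 125% (Y125) of vehicle activity.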

[2] = test system: Porcine atria myofibrils (atrial myosin ATPase); assay: Myofibril ATPase assay, porcine atria myofibrils; format: biochemical; conditions: porcine atria myofibrils
Procedure, shortened: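 Coupled PK-LDH readout, NADH loss at 340 nm, kinetic 75 min. Porcine atria myofibrils, pCa buffer (PIPES/CaCl2/EGTA, pH 7.0). Slopes (mAU/min) normalized to vehicle = 100%, 4-parameter fit; Y75 or Y125 reported.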

[3] = molecular target: T1, Porcine ventricle myofibrils (ventricular myosin ATPase) (Sus scrofa, UniProt P79293); assay: Myofibril ATPase assay, porcine ventricle myofibrils; format: biochemical, porcine (Yucatan minipigs); conditions: porcine ventricle myofibrils
T1 construct: Myofibrils from porcine cardiac muscle was isolated from the left ventricle of Yucatan minipigs; tissue Exemplar Genetics; host or cells: left ventricle of Yucatan minipigs, myofibrils prepared in house
Procedure, shortened: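 Read-out: A340 kinetic, NADH consumption coupled to ADP via PK-LDH, 75 min. Yucatan minipig LV myofibrils, pCa buffer (PIPES/CaCl2/EGTA, pH 7.0). Linear-regression slope (mAU/min), vehicle = 100%, 4PL fit; Y75 or Y125 reported.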

[4] = Y75 value (75% activity relative to no compound)

T1 sequence (P79293 whole entry): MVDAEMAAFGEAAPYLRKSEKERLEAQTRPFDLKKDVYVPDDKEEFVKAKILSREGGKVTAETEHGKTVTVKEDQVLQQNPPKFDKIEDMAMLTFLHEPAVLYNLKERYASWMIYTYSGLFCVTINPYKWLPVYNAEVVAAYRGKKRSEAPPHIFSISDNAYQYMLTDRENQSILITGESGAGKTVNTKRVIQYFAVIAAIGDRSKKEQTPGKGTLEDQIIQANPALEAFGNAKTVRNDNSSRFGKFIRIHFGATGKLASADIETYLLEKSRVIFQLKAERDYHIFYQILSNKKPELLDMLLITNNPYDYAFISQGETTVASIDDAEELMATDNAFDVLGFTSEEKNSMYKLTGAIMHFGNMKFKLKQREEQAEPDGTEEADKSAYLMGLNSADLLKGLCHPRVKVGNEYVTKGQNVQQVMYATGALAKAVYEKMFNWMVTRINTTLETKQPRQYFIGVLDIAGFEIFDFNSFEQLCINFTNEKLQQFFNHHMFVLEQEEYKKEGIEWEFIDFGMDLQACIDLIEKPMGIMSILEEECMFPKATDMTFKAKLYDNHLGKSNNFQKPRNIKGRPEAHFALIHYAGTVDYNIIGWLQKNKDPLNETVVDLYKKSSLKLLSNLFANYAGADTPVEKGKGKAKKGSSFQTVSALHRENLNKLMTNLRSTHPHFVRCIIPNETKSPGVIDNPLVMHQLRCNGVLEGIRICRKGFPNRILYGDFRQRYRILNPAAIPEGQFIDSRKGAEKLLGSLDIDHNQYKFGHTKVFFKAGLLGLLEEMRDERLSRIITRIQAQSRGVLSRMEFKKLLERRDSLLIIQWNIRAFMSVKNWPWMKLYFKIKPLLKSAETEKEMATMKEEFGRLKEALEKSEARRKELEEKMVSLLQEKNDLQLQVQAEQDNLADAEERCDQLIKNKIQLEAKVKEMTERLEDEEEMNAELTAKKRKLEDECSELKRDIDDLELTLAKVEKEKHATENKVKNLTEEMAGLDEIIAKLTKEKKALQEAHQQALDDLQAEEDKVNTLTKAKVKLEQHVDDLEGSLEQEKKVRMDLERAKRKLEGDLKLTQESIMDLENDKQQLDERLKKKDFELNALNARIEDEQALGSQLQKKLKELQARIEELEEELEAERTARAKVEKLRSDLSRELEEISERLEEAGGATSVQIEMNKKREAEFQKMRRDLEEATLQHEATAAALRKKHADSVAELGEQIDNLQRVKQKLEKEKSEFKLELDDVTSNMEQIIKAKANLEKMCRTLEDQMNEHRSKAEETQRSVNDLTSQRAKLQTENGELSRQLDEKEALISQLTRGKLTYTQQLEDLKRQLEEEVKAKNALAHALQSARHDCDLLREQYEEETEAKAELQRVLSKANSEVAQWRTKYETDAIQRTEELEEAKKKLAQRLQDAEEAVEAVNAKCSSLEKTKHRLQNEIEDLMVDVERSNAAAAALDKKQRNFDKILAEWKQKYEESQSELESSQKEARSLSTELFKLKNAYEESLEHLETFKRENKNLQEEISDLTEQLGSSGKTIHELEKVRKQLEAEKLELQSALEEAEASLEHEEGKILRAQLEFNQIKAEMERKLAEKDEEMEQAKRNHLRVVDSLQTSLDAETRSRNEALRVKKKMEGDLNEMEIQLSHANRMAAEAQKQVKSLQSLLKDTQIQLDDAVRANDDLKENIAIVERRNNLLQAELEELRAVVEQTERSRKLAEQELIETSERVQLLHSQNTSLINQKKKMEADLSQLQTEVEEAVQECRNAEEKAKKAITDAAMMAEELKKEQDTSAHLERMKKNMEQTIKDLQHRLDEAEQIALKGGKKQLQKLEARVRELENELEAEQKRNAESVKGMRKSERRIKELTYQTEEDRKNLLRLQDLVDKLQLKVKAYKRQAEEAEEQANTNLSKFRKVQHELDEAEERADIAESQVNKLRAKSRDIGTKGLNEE

Row | SMILES | Skeletal EC25 ([1]; Y75 value) [µM] | Atrial EC25 [2, 4] [µM] | Ventricular EC25 ([3]; Y75 value) [µM] | Skeletal EC25 ([1]; Y75 value (no ‡ mark)) [µM] | Atrial EC25 ([2]; Y75 value (no ‡ mark)) [µM] | Ventricular EC25 ([3]; Y75 value (no ‡ mark)) [µM]
1 | COc1ccc2[nH]c(=O)c(CC(=O)N[C@@H](C)c3ccc(F)cc3F)c(C)c2n1 [compound 409] | 0.03 | 0.04 | 0.59 |  |  | 
2 | Cc1c(C2(C(=O)N[C@@H](C)c3ncc(C#N)cc3F)CC2)c(=O)[nH]c2ccc(F)c(C#N)c12 (single isomer, unassigned) [compound 2524] |  |  |  | 0.13 | 0.16 | 0.31
3 | Cc1nc(C#N)cnc1[C@H](C)NC(=O)Cc1cc2cc(F)c(F)cc2[nH]c1=O (single isomer, unassigned) [compound 6] |  |  |  | 0.30 | 0.81 | 0.95
4 | N#Cc1cnc2c(c1)COC[C@@H]2NC(=O)Cc1cc2cc(F)c(F)cc2[nH]c1=O [compound 1055] |  |  |  | 18 | 100.00 | 100.00
5 | Cc1c(CC(=O)N[C@@H](C)c2ncc(C#N)cc2F)c(=O)[nH]c2cc(F)ccc12 [compound 1079] |  |  |  | 0.14 | 0.44 | 3.04
6 | C[C@@H](NC(=O)C(F)(F)c1cc2c(C#N)c(F)ccc2[nH]c1=O)c1ncc(C#N)cc1F (single isomer, unassigned) [Compound 2529] |  |  |  | 0.24 | 0.24 | 0.35
7 | Cc1c(C(F)(F)C(=O)N[C@H](C)c2ncc(C#N)cn2)c(=O)[nH]c2ccc(F)cc12 (single isomer, unassigned) [compound 2594] |  |  |  | 0.33 | 0.23 | 0.33
8 | Cc1c(CC(=O)N[C@@H](C)c2ccc(F)cc2F)c(=O)[nH]c2ccccc12 [compound 135] |  |  |  | 0.03 | 0.10 | 0.40
9 | Cc1nc(C#N)cnc1[C@H](C)NC(=O)Cc1c(C)c2c(F)c(F)ccc2[nH]c1=O [compound 1140] |  |  |  | 0.00 | 0.08 | 0.06
10 | Cc1nccc2[nH]c(=O)c(CC(=O)N[C@@H](C)c3ncccc3F)c(C)c12 (single isomer, unassigned) [compound 268] | 100.00 | 100.00 | 100.00 |  |  | 
11 | Cc1c(CC(=O)N[C@H](C)c2cnc(C#N)nc2)c(=O)[nH]c2ccc(C(F)(F)F)nc12 [compound 457] | 100.00 | 30.66 | 100.00 |  |  | 
12 | Cc1c(CC(=O)N[C@@H](CO)c2ccc(F)cc2F)c(=O)[nH]c2ccnc(C(F)(F)F)c12 [compound 232] | 0.02 | 0.47 | 2.74 |  |  | 
13 | C[C@H](NC(=O)Cc1c(C(F)(F)F)c2ccccc2[nH]c1=O)c1ccc(F)cc1F [compound 129] |  |  |  | 0.04 | 0.21 | 0.75
14 | Cc1nccc2[nH]c(=O)c([C@H](C)C(=O)N[C@@H](C)c3ccc(F)cc3F)c(C)c12 (single isomer, unassigned) [compound 398] | 0.23 | 2.73 | 59.63 |  |  | 
15 | Cc1c(C(F)(F)C(=O)N[C@@H](C)c2ncc(C#N)cn2)c(=O)[nH]c2ccc(F)c(C(F)(F)F)c12 (single isomer, unassigned) [Compound 2514] |  |  |  | 0.16 | 0.60 | 1.53
16 | Cc1c(C(F)(F)C(=O)N[C@H](C)c2ncc(C#N)cc2F)c(=O)[nH]c2ccnc(C#N)c12 (single isomer, unassigned) [compound 3510] | 0.16 | 0.44 | 1.30 |  |  | 

Row | SMILES | Skeletal EC25 ([1]; Y75 value) [µM] | Atrial EC25 [2, 4] [µM] | Ventricular EC25 ([3]; Y75 value) [µM] | Skeletal EC25 ([1]; Y75 value (no ‡ mark)) [µM] | Atrial EC25 ([2]; Y75 value (no ‡ mark)) [µM] | Ventricular EC25 ([3]; Y75 value (no ‡ mark)) [µM]
17 | Cc1c(CC(=O)N[C@H](C)c2ccc(C#N)cn2)c(=O)[nH]c2ccnc(C#N)c12 [compound 157] | 0.62 | 13.10 | 26.29 |  |  | 
18 | Cc1c(C(F)(F)C(=O)N[C@H](C)c2ccc(C#N)nn2)c(=O)[nH]c2ccc(F)cc12 (single isomer, unassigned) [compound 2555] |  |  |  | 0.80 | 3.65 | 6.70
19 | Cc1nccc2[nH]c(=O)c(CC(=O)N[C@H]3c4c(F)cc(F)cc4OC3(C)C)c(C)c12 (single isomer, unassigned) [compound 189] | 0.87 | 1.22 | 13.14 |  |  | 
20 | Cc1nccc2[nH]c(=O)c(CC(=O)N[C@H](CCO)c3ccc(F)cc3F)c(C)c12 (single isomer, unassigned) [compound 341] | 100.00 | 100.00 | 100.00 |  |  | 
21 | Cc1nccc2[nH]c(=O)c(CC(=O)N[C@@H](C)c3ccc(C#N)nn3)c(C)c12 [compound 485] | 100.00 | 48.27 | 100.00 |  |  | 
22 | Cc1c(F)ccc2[nH]c(=O)c(CC(=O)N[C@@H](C)c3ncc(C#N)cc3F)c(C#N)c12 [compound 1150] |  |  |  | 0.04 | 0.05 | 0.05
23 | Cc1ccncc1[C@@H](C)NC(=O)Cc1c(C)c2c(C)c(F)ccc2[nH]c1=O [compound 1046] |  |  |  | 0.04 | 0.06 | 0.14
24 | Cc1c(C(F)(F)C(=O)N[C@@H]2CCc3cc(C#N)cnc32)c(=O)[nH]c2ccc(F)cc12 (single isomer, unassigned) [compound 2515] |  |  |  | 100.00 | 5.06 | 100.00
25 | C[C@H](NC(=O)Cc1c(C2CC2)c2cc(C#N)ccc2[nH]c1=O)c1ncc(C#N)cc1F [compound 1152] |  |  |  | 3.82 | 59.91 | 7.78
26 | Cc1c(CC(=O)N[C@H](CO)c2ncc(F)cc2F)c(=O)[nH]c2ccc(C#N)nc12 [compound 259] | 100.00 | 100.00 | 100.00 |  |  | 
27 | Cc1cnncc1[C@H](C)NC(=O)Cc1c(C)c2c(C)nccc2[nH]c1=O [compound 481] | 100.00 | 100.00 | 100.00 |  |  | 
28 | C[C@H](NC(=O)Cc1cc2cc(F)c(F)cc2[nH]c1=O)c1cnc(C#N)nc1 [compound 1075] |  |  |  | 8.39 | 16.51 | 15.41
29 | Cc1c(CC(=O)N[C@@H](C)c2ccc(F)cc2F)c(=O)[nH]c2ccnc(N3CCCC3)c12 [compound 346] | 2.37 | 100.00 | 100.00 |  |  | 
30 | Cc1c(CC(=O)N[C@@H](C)c2ncc(C#N)cn2)c(=O)[nH]c2ccc(F)c(Cl)c12 (single isomer, unassigned) [compound 2056] |  |  |  | 0.06 | 0.11 | 0.29
31 | Cc1c(C(F)(F)C(=O)N[C@H](C)c2ncc(C#N)cn2)c(=O)[nH]c2cccc(C#N)c12 (single isomer, unassigned) [compound 4838] |  |  |  | 0.28 | 0.92 | 3.58
